The values that follow come from US10722514B2 (FLX Bio, Inc., priority 2017, dated 2020).

Structures can show the parent of a compound that is named as a salt.

T1 sequence (Q93009 whole entry): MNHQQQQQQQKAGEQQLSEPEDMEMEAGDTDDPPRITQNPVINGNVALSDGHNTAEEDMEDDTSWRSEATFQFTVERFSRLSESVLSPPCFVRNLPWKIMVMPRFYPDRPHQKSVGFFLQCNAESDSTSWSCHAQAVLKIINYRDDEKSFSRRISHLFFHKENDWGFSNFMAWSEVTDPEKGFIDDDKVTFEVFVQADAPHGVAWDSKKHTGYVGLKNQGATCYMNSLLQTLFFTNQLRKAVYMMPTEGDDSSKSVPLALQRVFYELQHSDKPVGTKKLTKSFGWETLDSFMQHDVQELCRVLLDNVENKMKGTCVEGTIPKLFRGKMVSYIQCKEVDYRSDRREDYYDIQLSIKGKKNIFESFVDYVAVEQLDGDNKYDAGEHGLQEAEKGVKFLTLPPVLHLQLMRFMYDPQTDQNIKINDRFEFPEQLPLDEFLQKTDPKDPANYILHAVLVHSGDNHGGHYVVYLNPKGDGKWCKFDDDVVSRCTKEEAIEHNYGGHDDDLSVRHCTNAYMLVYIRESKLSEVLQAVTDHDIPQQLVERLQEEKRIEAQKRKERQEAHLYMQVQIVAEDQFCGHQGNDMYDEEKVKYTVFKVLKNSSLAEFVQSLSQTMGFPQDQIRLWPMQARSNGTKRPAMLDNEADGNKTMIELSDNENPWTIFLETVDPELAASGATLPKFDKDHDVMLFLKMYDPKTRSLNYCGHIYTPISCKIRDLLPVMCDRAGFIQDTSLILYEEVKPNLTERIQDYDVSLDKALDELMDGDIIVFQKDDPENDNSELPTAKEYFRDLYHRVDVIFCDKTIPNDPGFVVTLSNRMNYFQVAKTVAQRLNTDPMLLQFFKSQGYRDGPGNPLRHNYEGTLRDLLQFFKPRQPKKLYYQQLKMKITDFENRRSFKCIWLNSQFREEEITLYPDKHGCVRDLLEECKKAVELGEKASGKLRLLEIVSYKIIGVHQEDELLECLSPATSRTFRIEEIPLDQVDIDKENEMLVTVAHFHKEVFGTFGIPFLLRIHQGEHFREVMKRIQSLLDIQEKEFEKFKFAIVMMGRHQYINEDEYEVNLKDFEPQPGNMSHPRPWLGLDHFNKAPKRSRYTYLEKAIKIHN

The first assay addresses T1, recombinant full-length USP7 (Homo sapiens, UniProt Q93009).
T1 construct: A 25 μl reaction volume containing recombinant full-length USP7 (62 pM)
Description: USP7-mediated ubiquitin-rhodamine cleavage assay. The assay is classed as biochemical. The following applies: recombinant full-length USP7 62 pM; ubiquitin-rhodamine 100 nM; 30-minute incubation with compound, 1 hour reaction at room temperature; read-out: Potency: USP7 IC50. The procedure, abridged: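 Enzyme 62 pM; HEPES pH 7.3/150 mM NaCl/1 mM TCEP/125 μg/ml BSA; 1% DMSO; 30 min cpd preinc RT; Ub-rhodamine 100 nM, 1 h RT, dark; acetic acid stop; fluorescence; IC50 4-param fit.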
What is called IC50 is the point on the concentration scale where inhibition reaches its midpoint. `Cc1cc(Cl)cc(-c2ncnc3cc(CN4C(=O)C5CC5C4=O)sc23)c1O[C@@H]1CNC[C@@H]1F` (stereo partly drawn) [Example 351, 3-[[4-[5-chloro-2-[(3R,4S)-4-fluoropyrrolidin-3-yl]oxy-3-methyl-phenyl]thieno[3,2-d]pyrimidin-6-yl]methyl]-3-azabicyclo[3.1.0]hexane-2,4-dione dihydrochloride]: the half-maximal inhibitory concentration (IC50) was less than 1000 nM.
Take `Cc1cc(Cl)cc(-c2ccnc3cc(CN4C(=O)C5C(C4=O)C5(C)C)sc23)c1O[C@H]1CCCN[C@@H]1C` (stereo partly drawn) [Example 364, 3-[[7-[5-chloro-3-methyl-2-[[(2R,3S)-2-methyl-3-piperidyl]oxy]phenyl]thieno[3,2-b]pyridin-2-yl]methyl]-6,6-dimethyl-3-azabicyclo[3.1.0]hexane-2,4-dione; 2,2,2-trifluoroacetic acid]: the concentration for half-maximal inhibition (IC50) was less than 1000 nM.
With `CCC(O)c1cc2nccc(-c3cc(Cl)cc(C)c3O[C@H]3CCCNC3)c2s1` (stereo partly drawn) [Example 164, 1-(7-(5-Chloro-3-methyl-2-(((S)-piperidin-3-yl)oxy)phenyl)thieno[3,2-b]pyridin-2-yl)propan-1-ol], the IC50 fell in the range of 1000 to 10000 nM.
On the same count and under the same terms, the same measure for `Cc1cc(Cl)cc(-c2ccnc3cc(CN4C(=O)C5C(C4=O)C5(C)C)sc23)c1OC1CCNC1(C)C` (stereo not drawn) [Example 368, 3-[[7-[5-chloro-2-(2,2-dimethylpyrrolidin-3-yl)oxy-3-methyl-phenyl]thieno[3,2-b]pyridin-2-yl]methyl]-6,6-dimethyl-3-azabicyclo[3.1.0]hexane-2,4-dione]: less than 1000 nM; for `CN[C@@H]1CC[C@@H](Oc2c(C)cc(Cl)cc2-c2ccnc3cc(CN4C(=O)CCC4=O)sc23)C1` [Example 53, 1-((7-(5-Chloro-3-methyl-2-(((1R,3R)-3-(methylamino)cyclopentyl)oxy)phenyl)thieno[3,2-b]pyridin-2-yl)methyl)pyrrolidine-2,5-dione]: less than 1000 nM; for `Cc1cc(Cl)cc(-c2ncnc3cc(Cn4c(=O)ccn(C)c4=O)sc23)c1OC1CCNCC1` [Example 232, 3-((4-(5-Chloro-3-methyl-2-(piperidin-4-yloxy)phenyl)thieno[3,2-d]pyrimidin-6-yl)methyl)-1-methylpyrimidine-2,4(1H,3H)-dione]: less than 1000 nM.
Regarding `Cc1cc(C(F)(F)F)cc(-c2ccnc3cc(CN4C(=O)CCC4=O)sc23)c1O[C@@H]1CNC[C@@H]1F` [Example 63, 1-((7-(2-(((3R,4S)-4-Fluoropyrrolidin-3-yl)oxy)-3-methyl-5-(trifluoromethyl)phenyl)thieno[3,2-b]pyridin-2-yl)methyl)pyrrolidine-2,5-dione], the IC50 is less than 1000 nM.
Take `Cc1cc(Cl)cc(-c2ccnc3cc(CO)sc23)c1OCCC1CNC1` [Example 30, (7-(2-(2-(Azetidin-3-yl)ethoxy)-5-chloro-3-methylphenyl)thieno[3,2-b]pyridin-2-yl)methanol]: the IC50 is greater than 30000 nM.
Consider `Cc1cc(Cl)cc(-c2ccnc3cc(CO)sc23)c1OC[C@@H]1CNCCN1` [Example 168, (S)-(7-(5-Chloro-3-methyl-2-(piperazin-2-ylmethoxy)phenyl)thieno[3,2-b]pyridin-2-yl)methanol], for which the IC50 was in the range of 10000 to 30000 nM.
On the same count and under the same terms, next, `CC(=O)N[C@H]1CNC[C@H]1Oc1c(C)cc(Cl)cc1-c1ccnc2cc(CN3C(=O)CCC3=O)sc12` [Example 85, N-((3S,4R)-4-(4-Chloro-2-(2-((2,5-dioxopyrrolidin-1-yl)methyl)thieno[3,2-b]pyridin-7-yl)-6-methylphenoxy)pyrrolidin-3-yl)acetamide]: 1000 to 10000 nM.
Turning to `Cc1cc(Cl)cc(-c2ccnc3cc(Cn4c(=O)ccn(C)c4=O)sc23)c1O[C@H]1C[C@H](N)C1` [Example 7, 3-((7-(2-((1r,3r)-3-Aminocyclobutoxy)-5-chloro-3-methylphenyl)thieno[3,2-b]pyridin-2-yl)methyl)-1-methylpyrimidine-2,4(1H,3H)-dione], the IC50 was less than 1000 nM.
Regarding `CCC(O)c1cc2nccc(-c3cc(Cl)cc(C)c3O[C@H]3CCNC3)c2s1` (stereo partly drawn) [Example 50, 1-(7-(5-Chloro-3-methyl-2-(((S)-pyrrolidin-3-yl)oxy)phenyl)thieno[3,2-b]pyridin-2-yl)propan-1-ol], the IC50 lay within 1000 to 10000 nM.
Same read-out and setting: next, `Cc1cc(Cl)cc(-c2ccnc3cc(CN4C(=O)CCC4=O)sc23)c1O[C@@H]1CN(CCO)C[C@@H]1F` [Example 302, 1-[[7-[5-chloro-2-[(3R,4S)-4-fluoro-1-(2-hydroxyethyl)pyrrolidin-3-yl]oxy-3-methyl-phenyl]thieno[3,2-b]pyridin-2-yl]methyl]pyrrolidine-2,5-dione]: less than 1000 nM; `Cc1cc(Cl)cc(-c2ccnc3cc(Cn4c(=O)ccn(C)c4=O)sc23)c1O[C@H]1CCCNCC1` [Example 8, (S)-3-((7-(2-(Azepan-4-yloxy)-5-chloro-3-methylphenyl)thieno[3,2-b]pyridin-2-yl)methyl)-1-methylpyrimidine-2,4(1H,3H)-dione]: less than 1000 nM.
Same read-out and setting: the same measure for `Cc1cc(Cl)cc(-c2ccnc3cc(CN4C(=O)CCCC4C(F)(F)F)sc23)c1O[C@@H]1CNC[C@@H]1F` (stereo partly drawn) [Example 103, 1-((7-(5-Chloro-2-(((3R,4S)-4-fluoropyrrolidin-3-yl)oxy)-3-methylphenyl)thieno[3,2-b]pyridin-2-yl)methyl)-6-(trifluoromethyl)piperidin-2-one]: 1000 to 10000 nM; for `Cc1cc(Cl)cc(-c2ccnc3cc(CN4C(=O)SC(C)(C)C4=O)sc23)c1O[C@@H]1CNC[C@@H]1F` [Example 145, 3-((7-(5-Chloro-2-(((3R,4S)-4-fluoropyrrolidin-3-yl)oxy)-3-methylphenyl)thieno[3,2-b]pyridin-2-yl)methyl)-5,5-dimethylthiazolidine-2,4-dione]: less than 1000 nM.

The same assay, now with this note: recombinant full-length USP7 62 pM; ubiquitin-rhodamine 100 nM; 30-minute pre-incubation, 1 hour reaction at room temperature; read-out: Potency (USP7 IC50).
Turning to `Cc1cc(Cl)cc(-c2ccnc3cc(Cn4c(=O)ccn(C)c4=O)sc23)c1O[C@@H]1CC[C@](C)(N)C1` [Example 519, 3-[[7-[2-[(1R,3S)-3-amino-3-methyl-cyclopentoxy]-5-chloro-3-methyl-phenyl]thieno[3,2-b]pyridin-2-yl]methyl]-1-methyl-pyrimidine-2,4-dione; 2,2,2-trifluoroacetic acid], the IC50 is less than 1000 nM.
Still for that read-out and setting: the same measure for `Cc1cc(Cl)cc(-c2ccnc3cc(CN4C(=O)CCC4=O)sc23)c1O[C@H]1CNCC[C@@H]1F` [Example 425, 1-[[7-[5-chloro-2-[[(3S,4S)-4-fluoro-3-piperidyl]oxy]-3-methyl-phenyl]thieno[3,2-b]pyridin-2-yl]methyl]pyrrolidine-2,5-dione]: less than 1000 nM; for `Cc1cc(Cl)cc(-c2ccnc3cc(Cn4c(=O)ccn(CC(F)(F)F)c4=O)sc23)c1OC1(C)CCNC1` (stereo not drawn) [Example 663, 3-[[7-[5-chloro-3-methyl-2-(3-methylpyrrolidin-3-yl)oxy-phenyl]thieno[3,2-b]pyridin-2-yl]methyl]-1-(2,2,2-trifluoroethyl)pyrimidine-2,4-dione]: less than 1000 nM; for `Cc1cc(Cl)cc(-c2ccncc2CCCN2C(=O)CCC2=O)c1OC1CCNCC1` [Example 411, 1-[3-[4-[5-chloro-3-methyl-2-(4-piperidyloxy)phenyl]-3-pyridyl]propyl]pyrrolidine-2,5-dione; 2,2,2-trifluoroacetic acid]: 1000 to 10000 nM.
With `Cc1cc(Cl)cc(-c2ccnc3cc(Cn4c(=O)ccn(CC(F)(F)F)c4=O)sc23)c1OC1CCNCC1` [Example 568, 3-[[7-[5-chloro-3-methyl-2-(4-piperidyloxy)phenyl]thieno[3,2-b]pyridin-2-yl]methyl]-1-(2,2,2-trifluoroethyl)pyrimidine-2,4-dione], the IC50 is less than 1000 nM.
Take `Cc1cc(Cl)cc(-c2ccnc3cc(Cn4c(=O)[nH]cc(F)c4=O)sc23)c1O[C@H]1CCCNC1` [Example 420, 3-[[7-[5-chloro-3-methyl-2-[[(3S)-3-piperidyl]oxy]phenyl]thieno[3,2-b]pyridin-2-yl]methyl]-5-fluoro-1H-pyrimidine-2,4-dione]: the IC50 is less than 1000 nM.
As for `Cc1cc(Cl)cc(-c2ccnc3cc(CN4C(=O)CCC4=O)sc23)c1O[C@@H]1CNC[C@H](F)C1` [Example 424, 1-[[7-[5-chloro-2-[[(3S,5R)-5-fluoro-3-piperidyl]oxy]-3-methyl-phenyl]thieno[3,2-b]pyridin-2-yl]methyl]pyrrolidine-2,5-dione], the IC50 was less than 1000 nM.
Turning to `Cc1cc(Cl)cc(-c2ccnc3cc(Cn4c(=O)[nH]cc(C)c4=O)sc23)c1O[C@H]1CCCNC1` [Example 479, 3-[[7-[5-chloro-3-methyl-2-[[(3S)-3-piperidyl]oxy]phenyl]thieno[3,2-b]pyridin-2-yl]methyl]-5-methyl-1H-pyrimidine-2,4-dione], the IC50 is less than 1000 nM.
Same read-out and setting: the same measure for `Cc1cc(Cl)cc(-c2ccnc3cc(Cn4c(=O)ccn(C)c4=O)sc23)c1O[C@H]1CCN[C@@H](C)C1` [Example 593, 3-[[7-[5-chloro-3-methyl-2-[[(2S,4S)-2-methyl-4-piperidyl]oxy]phenyl]thieno[3,2-b]pyridin-2-yl]methyl]-1-methyl-pyrimidine-2,4-dione]: less than 1000 nM; for `Cc1cc(Cl)cc(-c2ccnc(CCCN3C(=O)CCC3=O)c2)c1OC1CNC[C@@H]1F` (stereo partly drawn) [Example 408, 1-[3-[4-[5-chloro-2-[(4S)-4-fluoropyrrolidin-3-yl]oxy-3-methyl-phenyl]-2-pyridyl]propyl]pyrrolidine-2,5-dione; 2,2,2-trifluoroacetic acid]: 1000 to 10000 nM; for `Cc1cc(Cl)cc(-c2ncnc3cc(Cn4c(=O)ccn(CC(F)(F)F)c4=O)sc23)c1O[C@@H]1CCNC[C@H]1C` [Example 561, 3-[[4-[5-chloro-3-methyl-2-[[(3R,4R)-3-methyl-4-piperidyl]oxy]phenyl]thieno[3,2-d]pyrimidin-6-yl]methyl]-1-(2,2,2-trifluoroethyl)pyrimidine-2,4-dione]: less than 1000 nM.
